According to PMC9408991, “Antitumor Effects of a New Retinoate of the Fungal Cytotoxin Illudin M in Brain Tumor Models” (International Journal of Molecular Sciences, 2022):

Test system: embryonal neuronal cells
Assay: Long-term development of embryonal neuronal cell cultures
Format: cell-based, mouse
Conditions: 1 µM, 3, 6 or 8 days
Method: NE-4C cells derived from the anterior brain vesicles of p53-deficient 9-day-old mouse embryos were maintained in Minimum Essential Medium (MEM; Sigma Aldrich, Taufkirchen, Germany) supplemented with 5% fetal calf serum (FCS; Invitrogen-Gibco, Carlsbad, CA, USA), 4 mM glutamine (Sigma-Aldrich, Taufkirchen, Germany) and 40 ug/mL gentamycin (Chinoin, Budapest, Hungary). For maintenance, subconfluent cultures were regularly split by trypsinization (0.05 w/v% trypsin in PBS) into poly-L-lysine-coated Petri dishes. Primary astrocytes were isolated from whole brains of neonatal (P0-P3) mice, as described earlier. In brief, meninges were removed, and the tissue pieces were subjected to enzymatic dissociation, using 0.05% w/v trypsin and 0.05% w/v DNase for 10 min at room temperature. The cells were plated onto poly-L-lysine coated plastic surfaces and grown in MEM supplemented with 10% fetal calf serum, 4 mM glutamine and 40 ug/mL gentamycin. Primary neuronal cultures were prepared from embryonic (E15–E16) mouse (CD1) forebrains, as described earlier. In brief, cell suspensions were prepared by mechanical dissociation over a nylon mesh with a pore diameter of 40–42 μm. The cells were seeded at 10^5 cells/cm^2 density onto PLL-coated surfaces. The cultures were maintained in MEM supplemented with 5% FCS, 4 mM glutamine, 40 µg/mL gentamicin and 2.5 μg/mL amphotericin B (Sigma). […]

## CC1=C(/C=C/C(C)=C/C=C/C(C)=C/C(=O)O[C@@H]2C3=C(C)C4(CC4)[C@@](C)(O)C(=O)C3=CC2(C)C)C(C)(C)CCC1 [Compound 2, illudin M retinoate]
  development of neuronal cells: developed normally
